Molecular target: T1, Interleukin-1 receptor-associated kinase 4 (Homo sapiens, UniProt Q9NWZ3)
T1 sequence (Q9NWZ3 whole entry): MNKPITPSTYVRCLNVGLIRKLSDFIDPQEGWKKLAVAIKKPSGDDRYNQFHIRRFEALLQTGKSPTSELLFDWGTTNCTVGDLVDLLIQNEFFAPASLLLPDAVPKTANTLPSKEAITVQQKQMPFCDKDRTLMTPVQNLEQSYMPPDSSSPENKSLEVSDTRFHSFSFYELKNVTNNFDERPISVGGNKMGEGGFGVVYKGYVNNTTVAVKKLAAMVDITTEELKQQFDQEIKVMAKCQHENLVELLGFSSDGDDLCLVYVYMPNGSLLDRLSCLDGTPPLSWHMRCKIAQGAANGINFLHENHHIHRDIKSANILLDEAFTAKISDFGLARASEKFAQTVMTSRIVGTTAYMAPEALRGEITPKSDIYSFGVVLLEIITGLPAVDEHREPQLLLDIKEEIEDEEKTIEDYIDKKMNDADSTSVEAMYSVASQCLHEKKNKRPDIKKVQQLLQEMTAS
Assay: Inhibition of recombinant human full-length His-tagged IRAK4 expressed in baculovirus infected insect cells using KKARFSRFAGSSPSQSSMVAR as substrate preincubated for 15 mins followed by substrate addition and measured after 2 hrs by LC-MS/MS analysis

| IC50 [nM] | SMILES |
| --- | --- |
| 0.2 | COc1cc2nn([C@H]3CC[C@@]4(CC3)CC(=O)N(C)C4)cc2cc1C(=O)Nc1cnc2cccnn12 |
| < 0.03 | CO[C@H]1C[C@H](Oc2cc3nn(C4CCC5(CC4)CN(C(C)=O)C5)cc3cc2C(=O)Nc2cnc3cccnn23)C1 |
| 0.2 | COc1cc2nn([C@H]3CC[C@H](N(C)C(=O)[C@@H](C)O)CC3)cc2cc1C(=O)Nc1cnc2cccnn12 |
